The values below come from US20100179176A1, “V3 ANTAGONISTS FOR THE TREATMENT OR PREVENTION OF CHRONIC PAIN” (N.V. Organon, priority 2007, published 2010).

For test [1], the system named is tail flick latency in mice. Put plainly: Mouse tail flick assay of acute thermal pain. The format is in vivo. To be noted: for Tail Flick Latency: mouse; for Effect on tail flick latencies (in words): oral administration, three doses, mouse, 20, 40 and 60 min post administration. On the procedure:
The tail flick test is used to evaluate the antinociceptive activity of test compounds in mice. Animals are placed on the tail flick apparatus and their tails exposed to a focused beam of radiant heat. The mice react to the noxious thermal stimulus by flicking their tail away from the heat source. The time taken for these responses to occur is measured (latency; s).
Experiments were performed using male ICR mice weighing (25-32 g). In brief, animals were held in place on the tail flick apparatus (Ugo Basile, Italy) by means of a perspex restrainer and their tail was positioned over the heat source. The latency to flick the tail from the radiant heat source focussed 2.5 cm from the tip was determined before (baseline readings) and at regular intervals after administration of the vehicle or test compounds (compound 1, 5.6-55.6 μmol/kg p.o.; compound 2, 5.3-52.6 μmol/kg p.o.). A 12 seconds cut-off was employed to prevent tissue damage.
Data are expressed as mean±s.e.m. and compared between groups using the Kruskal-Wallis one-way analysis of variance, a non-parametric statistical test. If statistical significance (P<0.05) is observed with this test, the vehicle group and each of the treatment groups is compared using the non-parametric Dunn's test.
On the technique in general: Thermal pain tests record how soon the animal reacts.

The subject of test [2] is mechanical allodynia induced by spinal nerve ligation in rats. Put plainly: Rat (Chung) model of neuropathic pain, von Frey paw withdrawal threshold. It is filed as in vivo. To be noted: for Withdrawal threshold (g) at peak effect: spinal nerve ligation; for Effect on mechanical allodynia (in words): oral administration, three doses; for ED50: po, read-out: ED50 at peak effect (dose at which allodynia is reversed by 50%). On the procedure:
In this model, mechanical allodynia is induced by tight ligation of the left L5 spinal nerve.
Male Wistar rats (150-175 g body weight at time of surgery) were employed in the study. Rats were placed on an elevated (˜40 cm) mesh floor in perspex boxes and the rats' withdrawal threshold to a mechanical stimulus (calibrated von Frey filaments) was measured using filaments of increasing force (2.6-167 mN). The von Frey filaments were applied to the plantar surface of the paw and the thershold response was determined using the up and down method. A positive response was noted if the paw was sharply withdrawn. A cut-off of 15 g was selected as the upper limit for testing. Following baseline measurements each animal was anaesthetised and the L5 spinal nerve tightly ligated. The animals were allowed to recover from the surgery for a period of at least three days. On the day of drug administration the paw withdrawal thresholds were re-measured (0 min). Immediately after this reading, the rats were dosed orally with vehicle or test compound. Readings were then made at intervals of 30, 60, 120, 180 and 240 min after compound administration.
Data were expressed as mean±s.e.m. The time of maximum effect for each animal in the top dose group was determined and these values averaged to calculate the mean time of maximum effect. For analytical purposes the time of maximum effect, tmax was defined as the time point closest to this averaged value. Data at tmax were compared between groups using the Kruskal-Wallis one-way analysis of variance, a non-parametric statistical test. Each of the treatment groups were then compared against the vehicle group, using the non-parametric Dunn's test. The ED50 (dose at which allodynia is reversed by 50%) value was also calculated at tmax using non linear regression (sigmoidal dose response; variable slope) with constants of 0 and 15 g (cut-off) for the bottom and top, respectively (XLFit software).

The test system of test [3] is mechanical hyperalgesia induced by complete Freund's adjuvant in rats. In words: Rat CFA model of inflammatory pain, Randall-Sellito paw withdrawal threshold. To be noted: for % Attenuation of hyperalgesia (peak effect): 7 days after CFA, peak effect 30 min. It is filed as in vivo. On the procedure:
In this model, inflammation is induced by subcutaneous injection of complete Freund's adjuvant (CFA) into the hind paw. The associated mechanical hyperalgesia is quantified by measuring the reduction in paw withdrawal threshold (PWT) to a mechanical compression of the paw.
Experiments were in male Wistar rats weighing (130-180 g). In brief, the rats' paw withdrawal threshold (PWT) to a mechanical compression of the hind paw was measured (baseline reading) using a Randall-Sellito apparatus (Ugo Basile). A cut-off of 200 g was employed to minimise tissue damage to the paw. The animals were then lightly anaesthetised with isoflurane (1-3%) and CFA (0.1 ml·paw^−1) injected subcutaneously (s.c.) into the plantar surface of the left hind paw. The animals were then returned to their home cage and left for the inflammation to develop.
Seven days after CFA injection, PWT's were re-measured (0 min) and immediately after this reading, rats were dosed orally with either vehicle or compound 2 (3-30 mg/kg). Readings were then made at 30 min and 2 h post drug administration.
Data were plotted as mean±s.e.m. and compared between groups using the Kruskal-Wallis one-way analysis of variance, a non-parametric statistical test. […] The percent attenuation of mechanical hyperalgesia is calculated at time of peak effect (tmax)

The test system of test [4] is tolerance development to the analgesic activity of morphine. The conditions noted are these: Database WPI, Derwent abstract; cited from earlier work.

The ED50 is the dose at which the effect has come halfway, by size or by number of responders. Take `COc1cc(-c2nc3ccc(-c4cccc(CN(C)C)c4)cc3c(=O)n2CC(=O)NC(C)C)ccc1F` [Compound 1, 2-[6-(3-Dimethylaminomethylphenyl)-2-(4-fluoro-3-methoxyphenyl)-4-oxo-4H-quinazolin-3-yl]-N-isopropylacetamide]: the “Tail Flick Latency” value in test [1] (5.6 μmol/kg p.o., 20 min post dose) is listed as 3.5 ± 0.4 s; in test [1] (5.6 μmol/kg p.o., 40 min post dose), 3.4 ± 0.2 s; in test [1] (5.6 μmol/kg p.o., 60 min post dose), 3.5 ± 0.2 s; in test [1] (18.6 μmol/kg p.o., 20 min post dose), 3.4 ± 0.3 s; in test [1] (18.6 μmol/kg p.o., 40 min post dose), 3.5 ± 0.2 s; in test [1] (18.6 μmol/kg p.o., 60 min post dose), 3.1 ± 0.2 s. For the same molecule, the “Tail Flick Latency” value amounted to 3.3 ± 0.3 s in test [1] (55.6 μmol/kg p.o., 20 min post dose); 3.5 ± 0.3 s in test [1] (55.6 μmol/kg p.o., 40 min post dose); 3.3 ± 0.2 s in test [1] (55.6 μmol/kg p.o., 60 min post dose). The “Effect on tail flick latencies (in words)” value in test [1] is on record as “had no effect on tail flick latencies”. Further, the “Withdrawal threshold (g) at peak effect” value in test [2] (5.6 μmol/kg p.o., peak effect 120 min) was 4.6 ± 0.6 g; in test [2] (18.6 μmol/kg p.o., peak effect 120 min), 5.6 ± 1.1 g; in test [2] (55.6 μmol/kg p.o., peak effect 120 min), 11.4 ± 0.7 g. The “Effect on mechanical allodynia (in words)” value in test [2] is given as “reversed mechanical allodynia in a dose-dependent fashion”. In test [2] (p.o.), the “Time of peak anti-allodynic effect post drug administration” value is on record as 120 min. The ED50 in test [2] (at tmax) came out at 21.2 µmol/kg.
For the molecule `CC(C)NC(=O)Cn1c(-c2cccc(Cl)c2)nc2ccc(OCCCN3CCCCC3)cc2c1=O` [Compound 2], the “Tail Flick Latency” value in test [1] (5.3 μmol/kg p.o., 20 min post dose) stood at 3.4 ± 0.2 s; in test [1] (5.3 μmol/kg p.o., 40 min post dose), 3.7 ± 0.2 s; in test [1] (5.3 μmol/kg p.o., 60 min post dose), 3.6 ± 0.1 s; in test [1] (17.3 μmol/kg p.o., 20 min post dose), 3.6 ± 0.1 s; in test [1] (17.3 μmol/kg p.o., 40 min post dose), 3.6 ± 0.1 s; in test [1] (17.3 μmol/kg p.o., 60 min post dose), 3.1 ± 0.1 s. The “Tail Flick Latency” value in test [1] (52.6 μmol/kg p.o., 20 min post dose) was found to be 3.5 ± 0.2 s; in test [1] (52.6 μmol/kg p.o., 40 min post dose) it was 3.5 ± 0.2 s; in test [1] (52.6 μmol/kg p.o., 60 min post dose) it was 3.2 ± 0.2 s. Besides, the “Effect on tail flick latencies (in words)” value in test [1] is on record as “had no effect on tail flick latencies”. Besides, the “% Attenuation of hyperalgesia (peak effect)” value in test [3] (5.7 μmol/kg p.o.) amounted to 31.5 ± 9.4%; in test [3] (18.9 μmol/kg p.o.), 43.1 ± 8.6 %; in test [3] (56.6 μmol/kg p.o.), 84.4 ± 12.0 %. Also, the “Effect on mechanical hyperalgesia induced by CFA (in words)” value in test [3] (oral administration 5.7, 18.9 or 56.6 μmol/kg) is recorded as “reversed mechanical hyperalgesia induced by CFA in a dose-dependent fashion”. Also, in test [3] (p.o., CFA), the “ED50 at peak effect (mechanical hyperalgesia)” value worked out at 19.2 µmol/kg. The “Time of peak anti-algesic effect post drug administration” value in test [3] (p.o., CFA) was 30 min. In addition, the “Withdrawal threshold (g) at peak effect” value is on record as 4.8 ± 1.0 g in test [2] (5.3 μmol/kg p.o., peak effect 30 min); 6.7 ± 1.1 g in test [2] (17.3 μmol/kg p.o., peak effect 30 min); 9.8 ± 1.8 g in test [2] (52.6 μmol/kg p.o., peak effect 30 min). Further, the “Effect on mechanical allodynia (in words)” value in test [2] is “reversed mechanical allodynia in a dose-dependent fashion”. In test [2] (p.o.), the “Time of peak anti-allodynic effect post drug administration” value came out at 30 min. For the same molecule, the median effective dose (ED50) at peak effect (dose at which allodynia is reversed by 50%) in test [2] (p.o., at tmax) worked out at 21.0 µmol/kg.
In the case of `COc1ccc(S(=O)(=O)N2C(=O)[C@@](c3ccccc3OC)(N3C[C@H](O)C[C@H]3C(=O)N(C)C)c3cc(Cl)ccc32)c(OC)c1` [Compound 3, reference compound], the “Effect on tolerance development to the analgesic activity of morphine (in words)” value in test [4] is given as “inhibits the tolerance development to the analgesic activity of morphine”. The “Withdrawal threshold (g) at peak effect” value was 5.0 ± 1.0 g in test [2] (3 μmol/kg p.o., peak effect 180 min); 6.9 ± 1.3 g in test [2] (10 μmol/kg p.o., peak effect 180 min); 10.1 ± 1.4 g in test [2] (30 μmol/kg p.o., peak effect 180 min). For the same molecule, the “Effect on mechanical allodynia (in words)” value in test [2] was “reversed mechanical allodynia in a dose-dependent fashion”. The “Time of peak anti-allodynic effect post drug administration” value in test [2] (p.o.) worked out at 180 min. For the same molecule, the ED50 in test [2] (at tmax) came out at 10.6 µmol/kg.
